Test results taken from patent US11230556B2 (Merck Sharp & Dohme Corp., priority 2016, dated 2022).

Biological target: T1, human M4 muscarinic acetylcholine receptor (Homo sapiens, UniProt P08173)
T1 construct: expressed in transfected cells; host or cells: CHO-K1
T1 sequence (P08173 1-479): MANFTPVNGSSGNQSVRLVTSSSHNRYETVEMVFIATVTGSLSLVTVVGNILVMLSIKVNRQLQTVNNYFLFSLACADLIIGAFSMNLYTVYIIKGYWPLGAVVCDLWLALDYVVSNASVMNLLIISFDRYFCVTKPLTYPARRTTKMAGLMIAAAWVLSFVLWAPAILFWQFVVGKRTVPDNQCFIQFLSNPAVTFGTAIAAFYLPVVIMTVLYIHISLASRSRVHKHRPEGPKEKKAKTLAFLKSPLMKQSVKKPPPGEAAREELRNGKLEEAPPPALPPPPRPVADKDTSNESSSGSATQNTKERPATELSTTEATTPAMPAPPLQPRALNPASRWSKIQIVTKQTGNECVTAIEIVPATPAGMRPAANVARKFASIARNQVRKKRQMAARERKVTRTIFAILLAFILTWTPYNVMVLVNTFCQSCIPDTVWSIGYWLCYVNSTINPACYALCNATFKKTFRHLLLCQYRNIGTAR
Experiment: human FLIPR-based M4 PAM assay (CHO-K1 cells with human M4 receptor and Gαqi5, calcium dye fluorescence, acetylcholine at 20% of maximum response)
Type: cell-based
Conditions: inflection point (IP) of 4 parameter logistic dose response curve, human M4 receptor + Gαqi5, FLIPR Tetra
Procedure: In a typical experiment the M4 muscarinic acetylcholine receptor modulating activity of the compounds of the present invention was determined in accordance with the following experimental method. CHO-K1 cells stably transfected with human M4 receptor and chimeric G-protein Gαqi5 (Coward P, et al., Analytical Biochemistry, 270:242-248 (1999)) are thawed from liquid N2 storage, resuspended in growth medium, plated in black, clear bottom 384 well plates, and incubated 16-20 hours at 37° C., 5% CO2. On the day of assay, growth medium is removed, the cells are washed 2 times with wash buffer, and cells are incubated in dye loading buffer at 37° C., 5% CO2 for ˜1 hour. Following dye loading the cell plates are placed in a FLIPR Tetra instrument and while monitoring dye fluorescence (excitation […]), 10 uL of test substance at increasing concentrations is added, and fluorescence values are recorded for 4 min. Next, 10 uL of acetylcholine is added (final concentration calculated so as to achieve 20% of the maximum acetycholine response), and the fluorescence reading is continued for 3.5 min. In some cases, a third addition of acetylcholine (final concentration calculated to achieve 70% of the maximal acetylcholine response) is performed. The resulting dose response curves are fit to a 4 parameter logistic equation and the final result is determined as the inflection point (IP) of the curve
CHO-K1 cells stably transfected with human M4 receptor and chimeric G-protein Gαqi5 are thawed from liquid N2 storage, resuspended in growth medium, plated in black, clear bottom 384 well plates, and incubated 16-20 hours at 37° C., 5% CO2.
On the day of assay, growth medium is removed, the cells are washed 2 times with wash buffer, and cells are incubated in dye loading buffer at 37° C., 5% CO2 for ˜1 h. Following dye loading the cell plates are placed in a FLIPR Tetra instrument and while monitoring dye fluorescence ([…]), 10 uL of test substance at increasing concentrations is added, and fluorescence values are recorded for 4 min. Next, 10 uL of acetylcholine is added (final concentration calculated so as to achieve 20% of the maximum acetycholine response), and the fluorescence reading is continued for 3.5 min. In some cases, a third addition of acetylcholine (final concentration calculated to achieve 70% of the maximal acetylcholine response) is performed.

Molecule | EC50
COc1ccc(OC2CCN(c3nc4c(cc3C)CN(S(=O)(=O)C3CC3)C4)CC2)cn1 [Example 58, 6-(Cyclopropylsulfonyl)-2-(4-((6-methoxypyridin-3-yl)oxy)piperidin-1-yl)-3-methyl-6,7-dihydro-5H-pyrrolo[3,4-b]pyridine] | 168 nM
COc1ccc(OC2CCN(c3nc4c(cc3C)C(=O)OC4CO)CC2)cn1 (centres unmarked) [Example 33, 7-(Hydroxymethyl)-2-(4-((6-methoxypyridin-3-yl)oxy)piperidin-1-yl)-3-methylfuro[3,4-b]pyridin-5(7H)-one] | 34 nM
Cc1cn2c(=O)n(C)nc2nc1N1CCC(OCC2CCCC2)CC1 [Example 12, 7-(4-(cyclopentylmethoxy)piperidin-1-yl)-2,6-dimethyl-[1,2,4]triazolo[4,3-a]pyrimidin-3(2H)-one] | 718 nM
COc1ccc(OC2CCN(c3nc4c(cc3C)C(=O)C(C)C4)CC2)cn1 (centres unmarked) [Example 74, 2-(4-((6-Methoxypyridin-3-yl)oxy)piperidin-1-yl)-3,6-dimethyl-6,7-dihydro-5H-cyclopenta[b]pyridin-5-one] | 119 nM
Cc1cn2c(=O)[nH]nc2nc1N1CC[C@@H](Oc2ccc3c(cnn3C)c2)[C@H](F)C1 [Example 7, 7-((3R,4R)-3-fluoro-4-((1-methyl-1H-indazol-5-yl)oxy)piperidin-1-yl)-6-methyl-[1,2,4]triazolo[4,3-a]pyrimidin-3(2H)-one] | 138 nM
COC(=O)N1Cc2cc(C)c(N3CCC(Oc4ccc(OC)nc4)CC3)nc2C1 [Example 61, methyl 2-(4-((6-methoxypyridin-3-yl)oxy)piperidin-1-yl)-3-methyl-5,7-dihydro-6H-pyrrolo[3,4-b]pyridine-6-carboxylate] | 156 nM
Cc1cn2c(=O)[nH]nc2nc1N1CCC(OCC2CCCC2)CC1 [Example 8, 7-(4-(cyclopentylmethoxy)piperidin-1-yl)-6-methyl-[1,2,4]triazolo[4,3-a]pyrimidin-3(2H)-one] | 242 nM
COc1ccc(OC2CCN(c3nc4c(cc3C)CN(C(=O)[C@H](C)O)C4)CC2)cn1 [Example 51, (S)-2-hydroxy-1-(2-(4-((6-methoxypyridin-3-yl)oxy)piperidin-1-yl)-3-methyl-5,7-dihydro-6H-pyrrolo[3,4-b]pyridin-6-yl)propan-1-one] | 109 nM
COCCC(=O)N1Cc2cc(C)c(N3CCC(Oc4ccc(OC)nc4)CC3)nc2C1 [Example 56, 3-methoxy-1-(2-(4-((6-methoxypyridin-3-yl)oxy)piperidin-1-yl)-3-methyl-5,7-dihydro-6H-pyrrolo[3,4-b]pyridin-6-yl)propan-1-one] | 221 nM
COc1ccc(OC2CCN(c3nc4nn(C)c(=O)n4cc3C)CC2)cn1 [Example 11, 7-(4-((6-methoxypyridin-3-yl)oxy)piperidin-1-yl)-2,6-dimethyl-[1,2,4]triazolo[4,3-a]pyrimidin-3(2H)-one] | 87 nM
COc1ccc(OC2CCN(c3nc4c(cc3C)CN(C(=O)C(C)(C)C)C4)CC2)cn1 [Example 45, 1-(2-(4-((6-methoxypyridin-3-yl)oxy)piperidin-1-yl)-3-methyl-5,7-dihydro-6H-pyrrolo[3,4-b]pyridin-6-yl)-2,2-dimethylpropan-1-one] | 235 nM
COc1ccc(OC2CCN(c3nc4c(cc3C)c(=O)[nH]n4C)CC2)cn1 [Example 25, 6-(4-((6-methoxypyridin-3-yl)oxy)piperidin-1-yl)-1,5-dimethyl-1,2-dihydro-3H-pyrazolo[3,4-b]pyridin-3-one] | 249 nM
Cc1cn2c(=O)n(C)nc2nc1N1CCC(Oc2ccc3c(cnn3C)c2)CC1 [Example 9, 2,6-dimethyl-7-(4-((1-methyl-1H-indazol-5-yl)oxy)piperidin-1-yl)-[1,2,4]triazolo[4,3-a]pyrimidin-3(2H)-one] | 112 nM
Cc1cc2c(nc1N1CCC(Oc3cccc(C#N)c3)CC1)CNS2(=O)=O [Example 76, 3-((1-(6-methyl-1,1-dioxido-2,3-dihydroisothiazolo[4,5-b]pyridin-5-yl)piperidin-4-yl)oxy)benzonitrile] | 221 nM
Cc1cc2c(nc1N1CCC(Oc3ccccc3)CC1)CN(S(C)(=O)=O)C2 [Example 60, 3-methyl-6-(methylsulfonyl)-2-(4-phenoxypiperidin-1-yl)-6,7-dihydro-5H-pyrrolo[3,4-b]pyridine] | 20 nM
(R)-2-(4-((6-Methoxypyridin-3-yl)oxy)piperidin-1-yl)-3,7-dimethylfuro[3,4-b]pyridin-5(7H)-one and (S)-2-(4-((6-methoxypyridin-3-yl)oxy)piperidin-1-yl)-3,7-dimethylfuro[3,4-b]pyridin-5(7H)-one [Example 29A] | 267 nM
COc1ccc(OC2CCN(c3nc4c(cc3C)CN(C(C)=O)C4)CC2)cn1 [Example 40, 1-(2-(4-((6-methoxypyridin-3-yl)oxy)piperidin-1-yl)-3-methyl-5,7-dihydro-6H-pyrrolo[3,4-b]pyridin-6-yl)ethan-1-one] | 162 nM
COc1ccc(OC2CCN(c3nc4c(cc3C)CN(C(=O)CCO)C4)CC2)cn1 [Example 39, 3-Hydroxy-1-(2-(4-((6-methoxypyridin-3-yl)oxy)piperidin-1-yl)-3-methyl-5,7-dihydro-6H-pyrrolo[3,4-b]pyridin-6-yl)propan-1-one] | 77 nM
COC(=O)N1Cc2cc(C)c(N3CCC(Oc4ccccc4)CC3)nc2C1 [Example 62, methyl 3-methyl-2-(4-phenoxypiperidin-1-yl)-5,7-dihydro-6H-pyrrolo[3,4-b]pyridine-6-carboxylate] | 114 nM
Cc1cn2c(=O)[nH]nc2nc1N1CCC(Oc2ccc3c(c2)COC3)CC1 [Example 2, 7-(4-((1,3-Dihydro-2-benzofuran-5-yl)oxy)piperidin-1-yl)-6-methyl-[1,2,4]triazolo[4,3-a]pyrimidin-3(2H)-one] | 20 nM
COc1ccc(OC2CCN(c3nc4c(cc3C)COC4=O)CC2)cn1 [Example 20, 2-(4-((6-Methoxypyridin-3-yl)oxy)piperidin-1-yl)-3-methylfuro[3,4-b]pyridin-7(5H)-one] | 151 nM
COc1ccc(OC2CCN(c3nc4[nH]ncc4cc3C)CC2)cn1 [Example 63, 6-(4-((6-Methoxypyridin-3-yl)oxy)piperidin-1-yl)-5-methyl-1H-pyrazolo[3,4-b]pyridine] | 368 nM
COc1ccc(OC2CCN(c3nc4c(cc3C)C(=O)CC4)CC2)cn1 [Example 69, 2-(4-((6-Methoxypyridin-3-yl)oxy)piperidin-1-yl)-3-methyl-6,7-dihydro-5H-cyclopenta[b]pyridin-5-one] | 42 nM
COc1ccc(OC2CCN(c3nc4nccn4cc3C)CC2)cn1 [Example 67, 7-(4-((6-methoxypyridin-3-yl)oxy)piperidin-1-yl)-6-methylimidazo[1,2-a]pyrimidine] | 765 nM
COc1ccc(OC2CCN(c3nc4c(cc3C)CN(Cc3ccncc3)C4=O)CC2)cn1 [Example 36, 2-(4-((6-Methoxypyridin-3-yl)oxy)piperidin-1-yl)-3-methyl-6-(pyridin-4-ylmethyl)-5,6-dihydro-7H-pyrrolo[3,4-b]pyridin-7-one] | 672 nM
COc1ccc(OC2CCN(c3nc4[nH][nH]c(=O)c4cc3C)CC2)cn1 [Example 23, 6-(4-((6-methoxypyridin-3-yl)oxy)piperidin-1-yl)-5-methyl-1,2-dihydro-3H-pyrazolo[3,4-b]pyridin-3-one] | 68 nM
